Source: PubChem BioAssay AID2060910 (Molecular Pharmacology Branch, DTP, NCI, 2025)

System: 242566-281-R-J2-PDC complex spheroid viability
Test: Anticancer human tumor 242566-281-R-J2-PDC patient-derived pancreatic carcinoma cell line growth inhibition [RAS]
Details: for IC50: curve of first compound; for viability, T/C: stronger effect = lower value
Method in brief: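 Tumour cells grown as complex spheroids with HUVEC endothelial cells and mesenchymal stem cells, treated with RAS pathway inhibitor combinations. Each agent spans half-log steps from near clinical Cmax, or 10 microM where Cmax is unknown.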

[1] = second compound 0.000949 µM, first compound 0.0316 µM
[2] = second compound 0.000949 µM, first compound 0.1 µM
[3] = second compound 0.000949 µM, first compound 0.316 µM
[4] = second compound 0.000949 µM, first compound 1 µM
[5] = second compound 0.003 µM, first compound 0.0316 µM
[6] = second compound 0.003 µM, first compound 0.1 µM
[7] = second compound 0.003 µM, first compound 0.316 µM
[8] = second compound 0.003 µM, first compound 1 µM
[9] = second compound 0.00949 µM, first compound 0.0316 µM
[10] = second compound 0.00949 µM, first compound 0.1 µM
[11] = second compound 0.00949 µM, first compound 0.316 µM
[12] = second compound 0.00949 µM, first compound 1 µM
[13] = second compound 0.03 µM, first compound 0.0316 µM
[14] = second compound 0.03 µM, first compound 0.1 µM
[15] = second compound 0.03 µM, first compound 0.316 µM
[16] = second compound 0.03 µM, first compound 1 µM
[17] = second compound 0.0949 µM, first compound 0.0316 µM
[18] = second compound 0.0949 µM, first compound 0.1 µM
[19] = second compound 0.0949 µM, first compound 0.316 µM
[20] = second compound 0.0949 µM, first compound 1 µM
[21] = second compound 0.3 µM, first compound 0.0316 µM
[22] = second compound 0.3 µM, first compound 0.1 µM
[23] = second compound 0.3 µM, first compound 0.316 µM
[24] = second compound 0.3 µM, first compound 1 µM
[25] = second compound 0.000949 µM, first compound 3.16 µM
[26] = second compound 0.000949 µM, first compound 10 µM
[27] = second compound 0.003 µM, first compound 3.16 µM
[28] = second compound 0.003 µM, first compound 10 µM
[29] = second compound 0.00949 µM, first compound 3.16 µM
[30] = second compound 0.00949 µM, first compound 10 µM
[31] = second compound 0.03 µM, first compound 3.16 µM
[32] = second compound 0.03 µM, first compound 10 µM
[33] = second compound 0.0949 µM, first compound 3.16 µM
[34] = second compound 0.0949 µM, first compound 10 µM
[35] = second compound 0.3 µM, first compound 3.16 µM
[36] = second compound 0.3 µM, first compound 10 µM
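Also: spheroids exposed to compound for 7 days before readout.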
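For viability, T/C in this document: 100% = DMSO vehicle control wells.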

In the case of `CCN1CCN(Cc2ccc(Nc3ncc(F)c(-c4cc(F)c5nc(C)n(C(C)C)c5c4)n3)nc2)CC1` + CCn1c(-c2cc(N3CCN(C)CC3)cnc2C(C)OC)c2c3cc(ccc31)-c1csc(n1)CC(NC(=O)C1CC1C)C(=O)N1CCCC(N1)C(=O)OCC(C)(C)C2, the IC50 (second compound 0.000949 µM) is reported as > 1000 nM, the IC50 (second compound 0.003 µM) is reported as > 1000 nM and the IC50 (second compound 0.00949 µM) is reported as < 3.16 nM. For the same compound, the IC50 (second compound 0.03 µM) was < 3.16 nM, the IC50 (second compound 0.0949 µM) was < 3.16 nM and the IC50 (second compound 0.3 µM) was < 3.16 nM. For the same compound, the viability, T/C (second compound 0.000949 µM, first compound 0.00316 µM) was 88.6%, the viability, T/C (second compound 0.000949 µM, first compound 0.01 µM) was 88.5% and the viability, T/C [1] was 69.9%. It also gave a viability, T/C [2] of 76%, a viability, T/C [3] of 90.5% and a viability, T/C [4] of 83.7%. The viability, T/C (second compound 0.003 µM, first compound 0.00316 µM) was 81.9%, the viability, T/C (second compound 0.003 µM, first compound 0.01 µM) was 67.8% and the viability, T/C [5] was 58.8%. It also gave a viability, T/C [6] of 63.8%, a viability, T/C [7] of 71.8% and a viability, T/C [8] of 56.1%. The viability, T/C (second compound 0.00949 µM, first compound 0.00316 µM) was 53.8%, the viability, T/C (second compound 0.00949 µM, first compound 0.01 µM) was 38.4% and the viability, T/C [9] was 43.2%. The viability, T/C [10] was 39.6%, the viability, T/C [11] was 42.9% and the viability, T/C [12] was 48.1%. For the same compound, the viability, T/C (second compound 0.03 µM, first compound 0.00316 µM) was 27.8%, the viability, T/C (second compound 0.03 µM, first compound 0.01 µM) was 31.3% and the viability, T/C [13] was 29.7%. The viability, T/C [14] was 30.9%, the viability, T/C [15] was 29.2% and the viability, T/C [16] was 40.9%. The viability, T/C (second compound 0.0949 µM, first compound 0.00316 µM) was 22%, the viability, T/C (second compound 0.0949 µM, first compound 0.01 µM) was 22.1% and the viability, T/C [17] was 20.8%. It also gave a viability, T/C [18] of 22%, a viability, T/C [19] of 22% and a viability, T/C [20] of 31.6%. The viability, T/C (second compound 0.3 µM, first compound 0.00316 µM) was 19.2%, the viability, T/C (second compound 0.3 µM, first compound 0.01 µM) was 18.9% and the viability, T/C [21] was 19.1%. The viability, T/C [22] was 20.3%, the viability, T/C [23] was 22.4% and the viability, T/C [24] was 32.7%.
In the case of `Cc1nc(N2CCC3(CC2)COC(C)C3N)c(CO)nc1Sc1ccnc(N)c1Cl` (stereo unspecified) + CCn1c(-c2cc(N3CCN(C)CC3)cnc2C(C)OC)c2c3cc(ccc31)-c1csc(n1)CC(NC(=O)C1CC1C)C(=O)N1CCCC(N1)C(=O)OCC(C)(C)C2, the IC50 (second compound 0.000949 µM) is reported as 353 nM, the IC50 (second compound 0.003 µM) is reported as 71.8 nM and the IC50 (second compound 0.00949 µM) is reported as < 31.6 nM. The IC50 (second compound 0.03 µM) was < 31.6 nM, the IC50 (second compound 0.0949 µM) was < 31.6 nM and the IC50 (second compound 0.3 µM) was < 31.6 nM. For the same compound, the viability, T/C [1] was 92.2%, the viability, T/C [2] was 69.8% and the viability, T/C [3] was 43.5%. For the same compound, the viability, T/C [4] was 45%, the viability, T/C [25] was 32.9% and the viability, T/C [26] was 19.8%. For the same compound, the viability, T/C [5] was 61%, the viability, T/C [6] was 46.9% and the viability, T/C [7] was 31%. For the same compound, the viability, T/C [8] was 28.2%, the viability, T/C [27] was 26.1% and the viability, T/C [28] was 16.1%. The viability, T/C [9] was 41.3%, the viability, T/C [10] was 26.4% and the viability, T/C [11] was 27.9%. The viability, T/C [12] was 21.9%, the viability, T/C [29] was 19.4% and the viability, T/C [30] was 17.1%. It also gave a viability, T/C [13] of 25.8%, a viability, T/C [14] of 24.3% and a viability, T/C [15] of 19.3%. For the same compound, the viability, T/C [16] was 17.9%, the viability, T/C [31] was 15.1% and the viability, T/C [32] was 14.9%. The viability, T/C [17] was 21.5%, the viability, T/C [18] was 19.1% and the viability, T/C [19] was 18.5%. The viability, T/C [20] was 16.9%, the viability, T/C [33] was 14.3% and the viability, T/C [34] was 15.4%. For the same compound, the viability, T/C [21] was 21.5%, the viability, T/C [22] was 18.1% and the viability, T/C [23] was 16.6%. The viability, T/C [24] was 14.8%, the viability, T/C [35] was 16.4% and the viability, T/C [36] was 12.9%.
With `NC1c2ccccc2OC12CCN(c1cnc3c(N4CCCc5ncccc54)n[nH]c3n1)CC2` (stereo unspecified) + CCn1c(-c2cc(N3CCN(C)CC3)cnc2C(C)OC)c2c3cc(ccc31)-c1csc(n1)CC(NC(=O)C1CC1C)C(=O)N1CCCC(N1)C(=O)OCC(C)(C)C2 the IC50 (second compound 0.000949 µM) was 50.8 nM, the IC50 (second compound 0.003 µM) was < 31.6 nM and the IC50 (second compound 0.00949 µM) was < 31.6 nM. The IC50 (second compound 0.03 µM) was < 31.6 nM, the IC50 (second compound 0.0949 µM) was < 31.6 nM and the IC50 (second compound 0.3 µM) was < 31.6 nM. For the same compound, the viability, T/C [1] was 58.2%, the viability, T/C [2] was 40.6% and the viability, T/C [3] was 20.6%. For the same compound, the viability, T/C [4] was 24.9%, the viability, T/C [25] was 21.2% and the viability, T/C [26] was 8.53%. It also gave a viability, T/C [5] of 42.9%, a viability, T/C [6] of 26.4% and a viability, T/C [7] of 18.9%. For the same compound, the viability, T/C [8] was 21.3%, the viability, T/C [27] was 18.4% and the viability, T/C [28] was 6.57%. It also gave a viability, T/C [9] of 31.6%, a viability, T/C [10] of 19.2% and a viability, T/C [11] of 18.1%. It also gave a viability, T/C [12] of 15.8%, a viability, T/C [29] of 13.4% and a viability, T/C [30] of 7.23%. The viability, T/C [13] was 23.1%, the viability, T/C [14] was 18.1% and the viability, T/C [15] was 15.7%. For the same compound, the viability, T/C [16] was 15.2%, the viability, T/C [31] was 12.8% and the viability, T/C [32] was 7.77%. The viability, T/C [17] was 20.1%, the viability, T/C [18] was 16.8% and the viability, T/C [19] was 14.8%. For the same compound, the viability, T/C [20] was 13.6%, the viability, T/C [33] was 11.8% and the viability, T/C [34] was 7.6%. For the same compound, the viability, T/C [21] was 15.6%, the viability, T/C [22] was 15.4% and the viability, T/C [23] was 14.4%. The viability, T/C [24] was 10.6%, the viability, T/C [35] was 9.17% and the viability, T/C [36] was 4.89%.
